Laboratory results taken from patent US7005546B2, “Acetamidobenzamide compounds for neurodegenerative disorders” (Renovis, Inc., priority 1995, dated 2006).

Assays:
[1] = system: MPTP-induced reduction in striatal dopamine, C57BL/6J mice; experiment: Dopamine depletion studies (MPTP mouse model of Parkinson's disease); assay type: in vivo; conditions: for preventing dopamine depletion following MPTP challenge (in words): Table 1 conditions, 30 mg/kg p.o.
Experimental: These findings have led to the development of an assay for agents effective in treating dopamine-associated neurodegenerative disorders, such as Parkinson's disease. In this assay, test animals are given an amount of MPTP adequate to severely depress their dopamine levels. Test compounds are administered to determine if they are capable of preventing the loss of dopamine in the test animals. To the extent that dopamine levels are retained, a compound can be considered to be an effective agent for slowing or delaying the course of neurodegenerative disease, e.g., Parkinson's disease. C57BL/6J mice were pretreated with either vehicle (1% methyl cellulose) or a drug (p.o.) 30 min before MPTP. MPTP was dissolved in isotonic saline (0.9%) and given subcutaneously as a single dose of 15 mg free base/kg body weight to produce a reduction in striatal dopamine to about 0.5 nanomoles/mg protein. Groups of mice (n=8–10 per group) received either vehicle plus saline, vehicle plus MPTP or drug plus MPTP. Seventy two hours after receiving MPTP, mice were sacrificed using cervical dislocation and the striata were excised. The tissue was homogenized in 0.4 N perchloric acid, centrifuged, and the supernatant analyzed by high performance liquid chromatography/electro-chemical detection (HPLC/ED) for dopamine levels. Supernatants were stored in a −90° C. freezer between the time of collection and analysis. The drugs were combined with methyl cellulose and were homogenized in water for dosing. The dosage amount ranged from 10 to 50 mg/kg for CPI1160, CPI1189 and CPI1234, and from 50 to 100 mg/kg for CPI1020.

[2] = In vivo biotransformation of orally administered CPI1020, blood of mice; conditions: mice given CPI1020 orally
Source text: (§1) Commonly owned U.S. patent application Ser. No. 08/227,777, referred to above, discloses several benzamides useful in treating neurodegenerative diseases based on their protective action in the MPTP mouse model of Parkinson's disease. […] This compound is likely formed in the body by reduction of the ring nitro of CPI1020 to an amino moiety (CPI1160) followed by acetylation of the amino function.

[3] = In vivo biotransformation of orally administered CPI1020, blood of rats; conditions: rats given CPI1020 orally
Source text: as §1

SMILES	preventing dopamine depletion following MPTP challenge (in words) [1]	melting point [°C]	in vivo biotransformation product of CPI1020 in blood [2]	in vivo biotransformation product of CPI1020 in blood [3]	protection from the neurotoxic action of MPTP (% of control) ([1]; 50 mg/kg p.o., 15 mg/kg MPTP model)
CC(C)(C)NC(=O)c1ccc(N)cc1 [CPI1160, N-tert-butyl-4-aminobenzamide]	effective	125 to 127			
CC(=O)Nc1ccc(C(=O)NC(C)(C)C)cc1 [CPI1189, N-tert-butyl-4-acetamidobenzamide]	effective		found in the blood	found in the blood	
CC(C)(C)NC(=O)c1ccc([N+](=O)[O-])cc1 [CPI1020, N-tert-butyl-4-nitrobenzamide, reference compound]					65 % of control
CC(=O)Nc1cccc(C(=O)NC(C)(C)C)c1 [CPI1234, N-tert-butyl-3-acetamidobenzamide]	effective	194 to 195			
